Measured values as given in patent US7807691B2, “Substituted N-arylpyrrolidines as selective androgen receptor modulators” (Eli Lilly and Company, priority 2005, dated 2010).
Read-outs that look alike come from different tables or passages of the source.

Legend:
[1] = molecular target: T1, human AR (androgen receptor) (Homo sapiens, UniProt P10275); test: Steroid hormone nuclear receptor binding assay (AR binding)
T1 construct: expressed in transfected cells; host or cells: 293 cells (293-AR lysate)
T1 sequence (P10275 1-920): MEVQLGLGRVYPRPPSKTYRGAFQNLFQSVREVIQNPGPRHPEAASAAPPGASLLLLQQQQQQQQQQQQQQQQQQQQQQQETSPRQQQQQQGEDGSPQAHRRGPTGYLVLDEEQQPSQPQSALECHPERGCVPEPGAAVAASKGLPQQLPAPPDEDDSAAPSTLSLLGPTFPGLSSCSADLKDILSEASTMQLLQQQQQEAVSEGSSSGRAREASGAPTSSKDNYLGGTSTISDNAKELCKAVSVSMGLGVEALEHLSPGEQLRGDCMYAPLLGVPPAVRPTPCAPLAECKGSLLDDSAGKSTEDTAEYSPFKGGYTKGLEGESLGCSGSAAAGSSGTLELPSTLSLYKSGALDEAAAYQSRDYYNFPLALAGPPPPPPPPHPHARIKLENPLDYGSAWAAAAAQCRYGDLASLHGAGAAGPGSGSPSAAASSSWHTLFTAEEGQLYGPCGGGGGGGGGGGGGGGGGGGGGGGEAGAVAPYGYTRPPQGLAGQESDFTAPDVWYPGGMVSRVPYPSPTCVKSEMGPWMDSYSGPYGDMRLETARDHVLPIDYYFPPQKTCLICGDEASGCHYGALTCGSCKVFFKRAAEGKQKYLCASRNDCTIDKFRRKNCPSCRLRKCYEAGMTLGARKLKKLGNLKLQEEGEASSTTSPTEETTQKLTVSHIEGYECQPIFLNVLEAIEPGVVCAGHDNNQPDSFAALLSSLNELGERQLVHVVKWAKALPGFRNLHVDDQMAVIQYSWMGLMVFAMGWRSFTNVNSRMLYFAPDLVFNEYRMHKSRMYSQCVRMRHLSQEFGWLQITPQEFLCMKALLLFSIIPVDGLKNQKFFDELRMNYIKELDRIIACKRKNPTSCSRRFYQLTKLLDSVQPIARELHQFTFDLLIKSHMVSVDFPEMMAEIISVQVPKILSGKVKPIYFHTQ
Method: Cell lysates from 293 cells overexpressing human GR (glucocorticoid receptor), AR (androgen receptor), MR (mineralocorticoid receptor) or PR (progesterone receptor) are used for competition binding assays to determine Ki values for test compounds. Briefly, competition binding assays are run in a buffer containing 20 mM Hepes, pH 7.6, 0.2 mM EDTA, 75 mM NaCl, 1.5 mM MgCl2, 20% glycerol, 20 mM sodium molybdate, 0.2 mM DTT, 20 ug/ml aprotinin and 20 ug/ml leupeptin, using either 0.3 nM ^3H-dexamethasone for GR binding, 0.36 nM ^3H-methyltrienolone for AR binding, 0.25 nM ^3H-aldosterone for MR binding, or 0.29 nM ^3H-methyltrienolone for PR binding, and either 20 ug 293-GR lysate, 22 ug 293-AR lysate, 20 ug 293-MR lysate or 40 ug 293-PR lysate per well. Competing compounds are added at various concentrations ranging from about 0.01 nM to 10 μM. Non-specific binding is determined in the presence of 500 nM dexamethasone for GR binding, 500 nM aldosterone for MR binding, or 500 nM methyltrienolone for AR and PR binding. The binding reaction (140 μl) is incubated for overnight at 4° C., then 70 μl of cold charcoal-dextran buffer (containing per 50 ml of assay buffer, 0.75 g of charcoal and 0.25 g of dextran) is added to each reaction. Plates are mixed 8 minutes on an orbital shaker at 4° C. Plates are then centrifuged at 3,000 rpm at 4° C. for 10 minutes. An aliquot of 120 μl of the mix is transferred to another 96-well plate and 175 μl of Wallac Optiphase “Hisafe 3” scintillation fluid is added to each well. Plates are sealed and shaken vigorously on an orbital shaker. After an incubation of 2 hrs, plates are read in a Wallac Microbeta counter. The data is used to calculate an IC50 and % Inhibition at 10 μM. The Kd for ^3H-dexamethasone for GR binding, ^3H-methyltrienolone for AR binding, ^3H-aldosterone for MR binding, or ^3H-methyltrienolone for PR binding, is determined by saturation binding. The IC50 values for test compounds are converted to Ki using Cheng-Prusoff equation and the Kd determined by saturation binding assay.
Binding assay protocols for steroid hormone nuclear receptors similar to those described above can be readily designed by the ordinarily skilled artisan.

[2] = molecular target: T2, human androgen receptor (AR) (Homo sapiens, UniProt P10275); test: C2C12 AR/ARE reporter assay; assay type: cell-based; conditions: for EC50: mouse myoblast C2C12 cells, luciferase reporter, 48 h; for C2C12 % Efficacy: versus maximum stimulation obtained with 10 nM methyltrienolone
T2 construct: expressed in transfected cells; host or cells: mouse myoblast C2C12 cells, transiently co-transfected with FuGENE
T2 sequence (P10275 1-920): T1 sequence (P10275 1-920)
Method: As an indicator of agonist activity in muscle tissue, the C2C12 AR/ARE reporter assay is performed. Briefly, mouse myoblast C2C12 cells are co-transfected using FuGENE™. […] Cells are transfected in T150 cm^2 flasks in DMEM media with 4% or 10% Fetal Bovine Serum (FBS). After a 5 hour incubation, transfected cells are trypsinized, plated in 96 well dishes in DMEM media containing 10% charcoal-stripped FBS, incubated for 2 h and then exposed to various concentrations of test compounds ranging from about 0.01 nM to 10 μM. After 48 h of incubations with compounds, cells are lysed and luciferase activity is determined using standard techniques. Data is fit to a 4 parameter-fit logistics to determine EC50 values. The % efficacy is determined versus maximum stimulation obtained with 10 nM methyltrienolone. […]

[3] = AR binding Ki (nM), 293-AR cell lysate, 3H-methyltrienolone competition
[4] = C2C12, read-out: C2C12 % Efficacy, versus maximum stimulation obtained with 10 nM methyltrienolone, average

SMILES | Ki [1, 3] [nM] | Emax [2, 4] [%] | EC50 ([2]; C2C12 EC50(nM), average) [nM] | C2C12 % Efficacy ([2]; average) [%] | Ki [1] [nM] | Emax ([2]; C2C12, read-out: C2C12 % Efficacy) [%] | EC50 ([2]; average, read-out: C2C12 EC50) [nM]
N#Cc1ccc(N2CCCC2c2cccnc2)cc1Cl (stereo not shown) [Example 16] | 17.4 | 42.6 | 109 | – | – | – | –
Cc1c(N2CCCC2c2nnc(N)o2)ccc(C#N)c1Cl (stereo not shown) [Example 30, 4-[2-(5-amino-1,3,4-oxadiazol-2-yl)pyrrolidin-1-yl]-2-chloro-3-methylbenzonitrile] | 18.7 | 95.7 | 37.9 | – | – | – | –
COc1cccc(C2CCCN2c2ccc(C#N)c(Cl)c2C)c1 (stereo not shown) [Example 5] | 1.1 | 102 | 0.9 | – | – | – | –
N#Cc1ccc(N2CCCC2c2ccc3c(c2)OCO3)cc1C(F)(F)F (stereo not shown) [Example 19] | 17.6 | -12.4 | – | – | – | – | –
CSc1cccc(C2CCCN2c2ccc(C#N)c(Cl)c2C)c1 (stereo not shown) [Example 13] | 5.8 | 84.7 | 9.7 | – | – | – | –
CCC1CCC(c2ccccc2)N1c1ccc(C#N)c(Cl)c1 (single isomer, unassigned) [Example 22d, 2-Chloro-4-(2-ethyl-5-phenyl-pyrrolidin-1-yl)-benzonitrile] | 2.2 | – | 6.1 | 66.5 | – | – | –
CC1(C)CC(c2ccc3c(c2)OCO3)N(c2ccc(C#N)c(Cl)c2)C1 (stereo not shown) [Example 24, 4-[2-(1,3-benzodioxol-5-yl)-4,4-dimethylpyrrolidin-1-yl]-2-chlorobenzonitrile] | 12.7 | 23.4 | 397 | – | – | – | –
CC1(c2ccc3c(c2)OCO3)CCCN1c1ccc(C#N)c(C(F)(F)F)c1 (stereo not shown) [Example 20] | – | – | – | – | 21.1 | 4.8 | 516
COc1ccc(C2CCCN2c2ccc(C#N)c(Cl)c2C)cc1 (stereo not shown) [Example 7] | 3.4 | 68.9 | 28.3 | – | – | – | –
COc1ccccc1C1CCCN1c1ccc(C#N)c(Cl)c1C (stereo not shown) [Example 6] | 7 | 81.7 | 177 | – | – | – | –
Cc1noc(C2CCCN2c2ccc(C#N)c(Cl)c2C)n1 (stereo not shown) [Example 27, 2-chloro-3-methyl-4-[2-(3-methyl-1,2,4-oxadiazol-5-yl)pyrrolidin-1-yl]benzonitrile] | 1.9 | 87.6 | 0.5 | – | – | – | –
Cc1c(N2CCCC2c2ccc(F)cc2)ccc(C#N)c1Cl (stereo not shown) [Example 3] | 2.7 | 51.1 | 5.1 | – | – | – | –
Cc1c(N2CCCC2c2ccc(Cl)cc2)ccc(C#N)c1Cl (stereo not shown) [Example 2] | 4.3 | 61 | 36.7 | – | – | – | –
CCC1CCC(c2ccccc2)N1c1ccc(C#N)c(Cl)c1 (single isomer, unassigned) [Example 22c, 2-Chloro-4-(2-ethyl-5-phenyl-pyrrolidin-1-yl)-benzonitrile] | 39.8 | – | 135 | 61.3 | – | – | –
Cc1c(N2CC(O)CC2c2ccccc2)ccc(C#N)c1Cl (stereo not shown) [Example 31, 2-Chloro-3-methyl-4-(4-hydroxy-2-phenyl-pyrrolidin-1-yl)-benzonitrile] | 8.3 | 91.6 | 20.7 | – | – | – | –
Cc1c(N2CC(C)(C)CC2c2ccccc2)ccc(C#N)c1Cl (stereo not shown) [Example 4] | 6.6 | 84.9 | 11.2 | – | – | – | –
Cc1c(N2CCCC2c2ccncc2)ccc(C#N)c1Cl (stereo not shown) [Example 11] | 6 | 76.8 | 6.8 | – | – | – | –
Cc1c(N2CCCC2c2ccccc2)ccc(C#N)c1Cl (stereo not shown) [Example 1, 2-Chloro-3-methyl-4-(2-phenyl-pyrrolidin-1-yl)-benzonitrile] | 1.4 | 67.6 | 1.2 | – | – | – | –
CCC1CCC(c2ccccc2)N1c1ccc(C#N)c(Cl)c1 (single isomer, unassigned) [Example 22a, 2-Chloro-4-(2-ethyl-5-phenyl-pyrrolidin-1-yl)-benzonitrile] | 122 | – | 32.4 | 92.4 | – | – | –
Cc1nnc(C2CCCN2c2ccc(C#N)c(Cl)c2C)s1 (stereo not shown) [Example 28, 2-chloro-3-methyl-4-[2-(5-methyl-1,3,4-thiadiazol-2-yl)pyrrolidin-1-yl]benzonitrile] | 9 | 74.3 | 24.4 | – | – | – | –
Cc1c(N2CCCC2c2nnco2)ccc(C#N)c1Cl (stereo not shown) [Example 26, 2-chloro-3-methyl-4-[2-(1,3,4-oxadiazol-2-yl)-1-pyrrolidinyl]benzonitrile] | 5.4 | 82.7 | 4.2 | – | – | – | –
Cc1c(N2CCCC2c2ccccc2C(F)(F)F)ccc(C#N)c1Cl (stereo not shown) [Example 8] | 72.9 | -38.5 | – | – | – | – | –
CCC1CCC(c2ccccc2)N1c1ccc(C#N)c(Cl)c1 (single isomer, unassigned) [Example 22b, 2-Chloro-4-(2-ethyl-5-phenyl-pyrrolidin-1-yl)-benzonitrile] | 39.9 | – | 25 | 80.6 | – | – | –
CSc1ccc(C2CCCN2c2ccc(C#N)c(Cl)c2C)cc1 (stereo not shown) [Example 14] | 13.4 | 73.1 | 21.2 | – | – | – | –
Cc1nnc(C2CCCN2c2ccc(C#N)c(Cl)c2C)o1 (stereo not shown) [Example 25, 2-chloro-3-methyl-4-[2-(5-methyl-1,3,4-oxadiazol-2-yl)pyrrolidin-1-yl]benzonitrile] | 3.7 | 80.5 | 0.9 | – | – | – | –
Cc1nnc(C2CCCN2c2ccc(C#N)c(Cl)c2C)[nH]1 (stereo not shown) [Example 29, 2-chloro-3-methyl-4-[2-(5-methyl-4H-1,2,4-triazol-3-yl)pyrrolidin-1-yl]benzonitrile] | 58.9 | 83.9 | 378 | – | – | – | –
Cc1c(N2CCCC2c2cccc(S(C)(=O)=O)c2)ccc(C#N)c1Cl (stereo not shown) [Example 21, 2-Chloro-4-[2-(3-methanesulfonyl-phenyl)-pyrrolidin-1-yl]-3-methyl-benzonitrile] | 3 | 58.1 | 103 | – | – | – | –
Cc1c(N2CCCC2c2ccccn2)ccc(C#N)c1Cl (stereo not shown) [Example 10] | 4.7 | 79.8 | 40.8 | – | – | – | –
COc1cccc(C2(C)CCCN2c2ccc(C#N)c(Cl)c2)c1 (stereo not shown) [Example 18] | 24.4 | 77.9 | 9.8 | – | – | – | –
CCC1CCC(c2ccccc2)N1c1ccc(C#N)c(Cl)c1 (mixture of isomers) [Example 22, 2-Chloro-4-(2-ethyl-5-phenyl-pyrrolidin-1-yl)-benzonitrile] | 4.9 | 85.5 | 17.7 | – | – | – | –
